Assay results as given in US20250057158A1 (priority 2021, published 2025).
Where two headings read alike, the source gives them in different places.

What was measured:
Phytophthora sojae = assay: Pot experiment, soybean Phytophthora stem and root rot (diseased area, control value); format: in vivo; conditions: diseased area after 3 days, vs untreated group
cucumbers = assay: Growth promoting ability, shoot weight of cucumbers; format: in vivo, cucumber; conditions: untreated group 31 g; for shoot weight, cucumbers (average): root zone treatment twice at one week intervals (valine 5 ml, 0.1%), two weeks after last treatment
Procedure: (§1) The growth of soybeans and cucumbers was observed by treatment with valine. One week after sowing in pots, root zone treatment of each plant was performed using 5 ml of valine at a concentration of 0.1%. The root zone treatment with valine was performed twice at one week intervals. Two weeks after the last treatment, a shoot of each treatment group was cut and weighed.

[1] = tested on: Pectobacterium carotovorum pv. carotovora; assay: Pot experiment, lettuce bacterial soft rot (diseased area, control value); format: in vivo; conditions: diseased area after 1 day, vs untreated group
[2] = tested on: soybean Phytophthora stem and root rot (Phytophthora sojae); conditions: treatment 7 days and 1 day before pathogen; for control value, soybean Phytophthora stem and root rot: from disease severity, vs untreated group; for disease severity (score 0 to 5), soybean Phytophthora stem and root rot: 7 days after pathogen, water control group 4.1
Procedure: (§2) A total of 3 crops (soybean, cucumber, lettuce) were tested against 3 pathogens (soybean Phytophthora stem and root rot, cucumber bacterial leaf blight, lettuce bacterial soft rot), and each plant was prepared in the same manner as Example 5.
(§3) From the disease severity investigated in this manner, a control value was calculated according to the following Equation.

[3] = tested on: Pseudomonas syringae pv. lachrymans; assay: Pot experiment, cucumber bacterial leaf blight (diseased area, control value); format: in vivo; conditions: 5 ml spray (amino acid 0.1%) one day before inoculation, diseased area after 3 days, vs untreated group
[4] = tested on: lettuce bacterial soft rot (Pectobacterium carotovorum pv. carotovora); assay: Optimal conditions, two treatments: lettuce bacterial soft rot (disease severity, control value); conditions: treatment 7 days and 1 day before pathogen; for control value, lettuce bacterial soft rot: from disease severity, vs untreated group; for disease severity (score 0 to 5), lettuce bacterial soft rot: 48 hours after pathogen, water control group 4.2
Procedure: as §2, §3

Botrytis cinerea = assay: Pot experiment, tomato gray mold (diseased area, control value); format: in vivo; conditions: diseased area after 3 days, vs untreated group
soybeans = assay: Growth promoting ability, shoot weight of soybeans; format: in vivo, soybean; conditions: untreated group 8.6 g; for shoot weight, soybeans (average): root zone treatment twice at one week intervals (valine 5 ml, 0.1%), two weeks after last treatment
Procedure: as §1

[5] = tested on: Pseudomonas syringae pv. tomato DC3000 (Pst); format: in vivo; conditions: Arabidopsis thaliana; for disease severity (score 0 to 5): water-treated group 4.6; for induced resistance against Pst (disease severity, statistical significance vs water-treated control): 50 μl of 0.1% amino acid to roots, Pst 7 days later, severity 7 days after pathogen
[6] = tested on: Pathogenesis-related protein (PR) 1a promoter GUS fusion construct; assay: Expression of disease resistance marker gene PR1a through GUS activity; format: in vivo, Arabidopsis thaliana; conditions: roots treated with 50 μl; observed 1 Dai to 4 Dai after pathogen treatment
[7] = tested on: Magnaporthe oryzae KI-1113a; format: in vivo; conditions: pot; 5 ml spray (amino acid 0.1%) one day before inoculation; diseased area after 24 h dark plus 4 days; vs untreated group
Pcc pathogen = conditions: Arabidopsis thaliana; 0.1% amino acid; day 3 after Pcc
[8] = tested on: Soybean Phytophthora stem and root rot; conditions: 7 days after disease treatment, NDVI 0.7 or more = healthy, untreated group 26%
Procedure: The induced resistance against Soybean Phytophthora stem and root rot was investigated using a hyperspectral camera and a visible light band camera. Plant preparation was carried out in the same manner as in Example 6, and 7 days after disease treatment, leaves were picked from the same position in each treatment group, and hyperspectral photographs were taken.
It was quantified by the normalized difference vegetation index (NDVI). The degree of diseased leaves in the entire leaf area was indicated from 0.1 to 0.9 and the number of the corresponding pixels was used. Generally, when the number is 0.7 or more, it is considered a healthy leaf.

Pst pathogen = format: in vivo, Pseudomonas syringae pv. tomato; conditions: Arabidopsis thaliana; 0.1% amino acid; day 6 after Pst
[9] = valine 5 ml, 0.1%, root zone, twice

SMILES: CSC(=O)c1cccc2nnsc12 [BTH, benzo(1,2,3)-thiadiazole-7-carbothioic acid S-methyl ester, reference compound]
- control value, soybean Phytophthora stem and root rot (Phytophthora sojae): 10%
- shoot weight, cucumbers (average) (cucumbers): 26 g
- control value, lettuce bacterial soft rot [1]: 10%
- control value, soybean Phytophthora stem and root rot [2]: 46%
- control value, cucumber bacterial leaf blight [3]: 9%
- control value, lettuce bacterial soft rot [4]: 17%
- control value, tomato gray mold (Botrytis cinerea): 20%
- shoot weight, soybeans (average) (soybeans): 7.3 g
- disease severity (score 0 to 5) ([5]; Pst, 1 mM BTH): 3.7
- PR1a expression (GUS activity in leaf area) [6]: GUS was expressed in the leaf area
- control value, rice blast [7]: 9%

SMILES: N[C@@H](CC(=O)O)C(=O)O [aspartic acid]
- induced resistance against Pst (disease severity, statistical significance vs water-treated control) [5]: induced the resistance against Pst

SMILES: N[C@@H](CCC(=O)O)C(=O)O [glutamic acid]
- induced resistance against Pst (disease severity, statistical significance vs water-treated control) [5]: induced the resistance against Pst

SMILES: N[C@@H](Cc1c[nH]cn1)C(=O)O [histidine]
- induced resistance against Pst (disease severity, statistical significance vs water-treated control) [5]: induced the resistance against Pst

SMILES: CC[C@H](C)[C@H](N)C(=O)O [isoleucine]
- control value, soybean Phytophthora stem and root rot (Phytophthora sojae): 10%
- control value, lettuce bacterial soft rot [1]: 8%
- disease severity (score 0 to 5), soybean Phytophthora stem and root rot [2]: 2.3
- control value, soybean Phytophthora stem and root rot [2]: 44%
- control value, cucumber bacterial leaf blight [3]: 12%
- number of Pcc pathogen vs untreated control group (Pcc pathogen): reduction in the number of Pcc pathogen
- number of Pcc pathogens vs BTH-treated group (Pcc pathogen): reduction in the number of pathogens, as compared to the BTH-treated group
- disease severity (score 0 to 5), lettuce bacterial soft rot [4]: 3
- control value, lettuce bacterial soft rot [4]: 29%
- healthy leaves (NDVI, hyperspectral camera) [8]: 46%
- induced resistance against Pst (disease severity, statistical significance vs water-treated control) [5]: induced the resistance against Pst
- PR1a expression (GUS activity in leaf area) [6]: GUS was expressed in the leaf area
- number of Pst pathogens vs untreated control group (Pst pathogen): statistically significant reduction in the number of pathogens
- control value, rice blast [7]: 16%

SMILES: CC(C)C[C@H](N)C(=O)O [leucine]
- induced resistance against Pst (disease severity, statistical significance vs water-treated control) [5]: induced the resistance against Pst

SMILES: O=C(O)[C@@H]1CCCN1 [proline]
- number of Pcc pathogen vs untreated control group (Pcc pathogen): reduction in the number of Pcc pathogen
- number of Pcc pathogens vs BTH-treated group (Pcc pathogen): reduction in the number of pathogens, as compared to the BTH-treated group
- induced resistance against Pst (disease severity, statistical significance vs water-treated control) [5]: induced the resistance against Pst
- PR1a expression (GUS activity in leaf area) [6]: GUS was expressed in the leaf area
- number of Pst pathogens vs untreated control group (Pst pathogen): statistically significant reduction in the number of pathogens

SMILES: CC(C)[C@H](N)C(=O)O [valine]
- control value, soybean Phytophthora stem and root rot (Phytophthora sojae): 15%
- shoot weight, cucumbers (average) (cucumbers): 34 g
- shoot weight heavier than untreated group, cucumbers (cucumbers; [9]): 3 g
- control value, lettuce bacterial soft rot [1]: 13%
- disease severity (score 0 to 5), soybean Phytophthora stem and root rot [2]: 1.1
- control value, soybean Phytophthora stem and root rot [2]: 73%
- control value, cucumber bacterial leaf blight [3]: 17%
- number of Pcc pathogen vs untreated control group (Pcc pathogen): reduction in the number of Pcc pathogen
- number of Pcc pathogens vs BTH-treated group (Pcc pathogen): reduction in the number of pathogens, as compared to the BTH-treated group
- disease severity (score 0 to 5), lettuce bacterial soft rot [4]: 2.2
- control value, lettuce bacterial soft rot [4]: 48%
- shoot weight, soybeans (average) (soybeans): 11 g
- shoot weight heavier than untreated group, soybeans (soybeans; [9]): 2.4 g
- healthy leaves (NDVI, hyperspectral camera) [8]: 60%
- disease severity (score 0 to 5) ([5]; Pst, 0.1% (0.95 mM) valine): 2.5
- disease severity (score 0 to 5) ([5]; Pst, 0.5% valine): 2.4
- overall disease severity in valine-treated groups ([5]; Pst, valine 0.5%, 0.1%, 0.05%, 0.01%, 0.005% and 0.001%, vs water-treated group): overall disease severity decreased
- induced resistance against Pst (disease severity, statistical significance vs water-treated control) [5]: induced the resistance against Pst
- PR1a expression (GUS activity in leaf area) [6]: GUS was expressed in the leaf area
- number of Pst pathogens vs untreated control group (Pst pathogen): statistically significant reduction in the number of pathogens
- control value, rice blast [7]: 13%
